In the Kinase Knowledgebase extract (Sharma et al. 2016):

Molecular target: CDK2 (UniProt P24941)
Experiment: Enzyme Assay

| SMILES | IC50 [µM] |
| --- | --- |
| O=C(Cc1ccc(-c2ccccc2F)cc1)Nc1n[nH]c2c1CCC2 | 7 |
| O=C(Cc1ccc(-c2ccccc2)cc1)Nc1n[nH]c2c1CCC2 | 1 |
| O=C(Nc1n[nH]c2c1CCC2)c1cccs1 | 4 |
| O=C(Nc1n[nH]c2c1CCC2)c1ccc2c(c1)OCO2 | 4 |
| CC(=O)c1ccc(-c2ccc(CC(=O)Nc3n[nH]c4c3CCC4)cc2)cc1 | 6.5 |
| O=C(Nc1n[nH]c2c1CCC2)c1ccccc1 | 7 |
| O=C(Cc1ccc(-c2cccc(F)c2)cc1)Nc1n[nH]c2c1CCC2 | 7 |
| O=C(Cc1ccc(-c2ccc(F)cc2)cc1)Nc1n[nH]c2c1CCC2 | < 10 |
| O=C(Cc1cccc(-c2ccccc2)c1)Nc1n[nH]c2c1CCC2 | 8 |
| O=C(Nc1n[nH]c2c1CCC2)C1CC1 | 4 |
| O=C(CCc1ccccc1)Nc1n[nH]c2c1CCC2 | 3 |
| CC(=O)c1cccc(-c2ccc(CC(=O)Nc3n[nH]c4c3CCC4)cc2)c1 | 4.3 |

More lines, now with the values ahead:

| IC50 [µM] | SMILES |
| --- | --- |
| < 10 | COc1cccc(-c2ccc(CC(=O)Nc3n[nH]c4c3CCC4)cc2)c1 |
| 3 | O=C(Cc1ccc(F)cc1)Nc1n[nH]c2c1CCC2 |
| 1.5 | O=C(Cc1ccccc1)Nc1n[nH]c2c1CCC2 |
| 7.6 | COc1cccc(CC(=O)Nc2n[nH]c3c2CCC3)c1 |
| < 10 | COc1ccc(-c2ccc(CC(=O)Nc3n[nH]c4c3CCC4)cc2)cc1 |
| 1.1 | O=C(Cc1ccc(Br)cc1)Nc1n[nH]c2c1CCC2 |
| 0.8 | O=C(Cc1ccc(I)cc1)Nc1n[nH]c2c1CCC2 |
| 0.7 | COc1ccc(CC(=O)Nc2n[nH]c3c2CCC3)cc1 |
| 1.5 | CSc1ccc(CC(=O)Nc2n[nH]c3c2CCC3)cc1 |
| 4 | O=C(Cc1cccs1)Nc1n[nH]c2c1CCC2 |
| 1.5 | O=C(Cc1cccc(Br)c1)Nc1n[nH]c2c1CCC2 |
| 5 | O=C(Nc1n[nH]c2c1CCC2)c1cccc(F)c1 |
| 6 | COc1ccc(C(=O)Nc2n[nH]c3c2CCC3)cc1 |
| < 10 | COc1ccccc1-c1ccc(CC(=O)Nc2n[nH]c3c2CCC3)cc1 |
| 5.2 | COc1ccc(OC)c(CC(=O)Nc2n[nH]c3c2CCC3)c1 |
| 1 | CC(C)(C)c1ccc(CC(=O)Nc2n[nH]c3c2CCC3)cc1 |
